In patent publication US9586965B2, “Pyrrolo[2,3-d]pyrimidine compounds as inhibitors of protein kinases” (ACEA BIOSCIENCES INC., priority 2012, dated 2017):
Where “and” joins values, the source holds several entries; their conditions need not be identical. Equal entries are not always repeated. Where two headings read alike, the source gives them in different places.

Experiments:
[1] = biological target: EGFR (pY1068) in H1975 cell (T790M/L858R) (Homo sapiens (Human), UniProt P00533, L858R/T790M); experiment: pEGFR sandwich ELISA assay (Examples B-2, B-3, Table 21); type: cell-based; settings: for IC50: read-out: IC50 (uM) H1975 T790M/L858R (no EGF stimulation)
Sequence of EGFR (pY1068) in H1975 cell (T790M/L858R) (P00533 25-1210 T790M/L858R): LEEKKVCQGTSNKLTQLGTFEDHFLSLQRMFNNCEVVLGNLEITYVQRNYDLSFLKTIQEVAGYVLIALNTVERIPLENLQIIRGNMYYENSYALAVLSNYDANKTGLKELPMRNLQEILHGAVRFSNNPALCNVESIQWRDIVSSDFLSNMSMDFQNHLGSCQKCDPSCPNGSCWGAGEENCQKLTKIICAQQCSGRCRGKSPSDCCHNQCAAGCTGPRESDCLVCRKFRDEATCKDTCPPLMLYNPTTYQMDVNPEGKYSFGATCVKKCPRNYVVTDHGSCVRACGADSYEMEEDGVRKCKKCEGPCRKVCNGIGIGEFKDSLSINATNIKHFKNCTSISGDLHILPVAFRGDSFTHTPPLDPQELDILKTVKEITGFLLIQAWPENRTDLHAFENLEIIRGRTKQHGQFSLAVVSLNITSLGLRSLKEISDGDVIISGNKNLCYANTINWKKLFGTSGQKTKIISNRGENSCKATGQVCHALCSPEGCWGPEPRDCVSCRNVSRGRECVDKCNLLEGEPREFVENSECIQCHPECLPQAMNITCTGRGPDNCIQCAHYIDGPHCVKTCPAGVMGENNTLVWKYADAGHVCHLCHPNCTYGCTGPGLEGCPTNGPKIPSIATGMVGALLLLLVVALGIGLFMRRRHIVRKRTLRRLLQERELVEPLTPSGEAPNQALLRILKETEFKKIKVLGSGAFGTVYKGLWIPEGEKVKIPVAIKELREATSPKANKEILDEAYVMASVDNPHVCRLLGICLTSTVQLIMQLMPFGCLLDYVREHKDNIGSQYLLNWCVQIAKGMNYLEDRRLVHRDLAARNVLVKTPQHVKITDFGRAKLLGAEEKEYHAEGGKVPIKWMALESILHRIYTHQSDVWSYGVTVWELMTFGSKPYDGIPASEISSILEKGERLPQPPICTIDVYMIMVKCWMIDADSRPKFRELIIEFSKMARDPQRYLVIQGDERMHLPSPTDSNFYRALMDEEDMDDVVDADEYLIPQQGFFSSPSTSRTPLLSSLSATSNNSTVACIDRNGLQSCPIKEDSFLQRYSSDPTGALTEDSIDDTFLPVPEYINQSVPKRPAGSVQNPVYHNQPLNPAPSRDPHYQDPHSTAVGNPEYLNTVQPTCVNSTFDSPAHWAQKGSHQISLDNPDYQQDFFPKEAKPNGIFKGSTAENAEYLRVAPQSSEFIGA

JAK2 = JAK2 (Homo sapiens (Human), UniProt O60674); experiment: HotSpot kinase assay; type: biochemical; settings: Enzymatic Assays; Table 22; unit inferred
Sequence of JAK2 (O60674 809-1132): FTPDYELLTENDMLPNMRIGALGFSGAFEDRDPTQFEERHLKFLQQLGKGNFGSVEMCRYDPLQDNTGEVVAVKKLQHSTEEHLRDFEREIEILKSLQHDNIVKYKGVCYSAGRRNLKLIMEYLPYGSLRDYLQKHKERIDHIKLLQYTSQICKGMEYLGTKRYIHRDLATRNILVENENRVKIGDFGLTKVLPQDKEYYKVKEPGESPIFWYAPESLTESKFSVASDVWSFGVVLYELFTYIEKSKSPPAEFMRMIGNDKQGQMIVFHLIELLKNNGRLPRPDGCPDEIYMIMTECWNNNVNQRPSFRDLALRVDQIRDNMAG
Protocol: (§1) Assay Description. In vitro profiling protein kinases was performed using the “HotSpot” assay platform. Briefly, specific kinase/substrate pairs along with required cofactors were prepared in reaction buffer. Compounds were delivered into the reaction, followed 15-20 minutes later by addition of a mixture of ATP (Sigma, St. Louis Mo.) and ^33P ATP (Perkin Elmer, Waltham Mass.) to a final concentration of 10 μM. […] IC50 values and curve fits were obtained using Prism (GraphPad Software).
(§2) Reaction Conditions: Buffer Conditions: 20 mM Hepes (pH 7.5), 10 mM MgCl2, 1 mM EGTA, 0.02% Brij35, 0.02 mg/mL BSA, 0.1 mM Na3VO4, 2 mM DTT, and 1% DMSO. ATP concentration: 10 μM. Reaction Time: 2 hours. […] All kinase reactions were performed at 10 uM ATP. Test concentrations are provided below in molar units (M).

BTK = BTK (Homo sapiens (Human), UniProt Q06187); experiment: HotSpot kinase assay; type: biochemical; settings: Enzymatic Assays; Table 22; unit inferred
Sequence of BTK (Q06187 whole entry): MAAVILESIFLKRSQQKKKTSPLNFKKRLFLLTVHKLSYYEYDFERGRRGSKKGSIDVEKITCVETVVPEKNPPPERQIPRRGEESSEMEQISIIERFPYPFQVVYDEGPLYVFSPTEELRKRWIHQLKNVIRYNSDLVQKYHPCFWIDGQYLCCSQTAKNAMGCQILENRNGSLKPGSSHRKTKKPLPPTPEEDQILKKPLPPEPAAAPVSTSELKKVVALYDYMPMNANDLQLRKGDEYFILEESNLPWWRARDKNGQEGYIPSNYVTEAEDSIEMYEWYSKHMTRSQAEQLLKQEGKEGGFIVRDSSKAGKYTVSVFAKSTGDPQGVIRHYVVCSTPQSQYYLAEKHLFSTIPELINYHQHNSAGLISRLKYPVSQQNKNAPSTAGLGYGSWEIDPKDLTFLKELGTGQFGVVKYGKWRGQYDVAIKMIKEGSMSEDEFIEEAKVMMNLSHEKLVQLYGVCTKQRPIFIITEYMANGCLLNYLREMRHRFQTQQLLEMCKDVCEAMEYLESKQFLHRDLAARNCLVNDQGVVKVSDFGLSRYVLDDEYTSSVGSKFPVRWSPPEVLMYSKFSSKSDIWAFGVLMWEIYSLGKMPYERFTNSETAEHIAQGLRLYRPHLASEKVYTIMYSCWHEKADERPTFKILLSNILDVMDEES
Protocol: as §1, §2

JAK3 = JAK3 (Homo sapiens (Human), UniProt P52333); experiment: HotSpot kinase assay; type: biochemical; settings: Enzymatic Assays; Table 22; unit inferred
Sequence of JAK3 (P52333 781-1124): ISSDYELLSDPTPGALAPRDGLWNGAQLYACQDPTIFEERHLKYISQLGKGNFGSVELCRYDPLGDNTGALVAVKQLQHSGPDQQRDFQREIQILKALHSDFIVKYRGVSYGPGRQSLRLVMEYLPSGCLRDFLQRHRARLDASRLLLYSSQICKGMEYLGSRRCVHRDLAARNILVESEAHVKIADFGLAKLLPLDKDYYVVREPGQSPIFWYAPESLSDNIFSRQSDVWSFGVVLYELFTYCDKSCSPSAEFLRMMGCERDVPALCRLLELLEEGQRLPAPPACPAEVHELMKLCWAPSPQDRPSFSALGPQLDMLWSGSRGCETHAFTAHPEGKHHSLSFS
Protocol: as §1, §2

human wt BTK = human wt BTK (Homo sapiens (Human), UniProt Q06187); experiment: ClariCELL BTK cell-based assay; settings: Cell-based Assays (CAI) IC50(μM) BTK, HEK293 transfected with human wt BTK; 2 hours; repeat runs
Sequence of human wt BTK (Q06187 whole entry): as the sequence (Q06187 whole entry) above
Text: (§3) Protocol for ClariCELL™ JAK3 and BTK Assays is described below: • HEK293 human embryonic kidney cells were transiently transfected with either human wt BTK, human wt JAK3, or kinase-dead human JAK3 (for JAK3 negative controls).

human wt JAK3 = human wt JAK3 (Homo sapiens (Human), UniProt P52333); experiment: ClariCELL JAK3 cell-based assay; settings: Cell-based Assays (CAI) IC50(μM) JAK3, HEK293 transfected with human wt JAK3; 2 hours; repeat runs
Sequence of human wt JAK3 (P52333 whole entry): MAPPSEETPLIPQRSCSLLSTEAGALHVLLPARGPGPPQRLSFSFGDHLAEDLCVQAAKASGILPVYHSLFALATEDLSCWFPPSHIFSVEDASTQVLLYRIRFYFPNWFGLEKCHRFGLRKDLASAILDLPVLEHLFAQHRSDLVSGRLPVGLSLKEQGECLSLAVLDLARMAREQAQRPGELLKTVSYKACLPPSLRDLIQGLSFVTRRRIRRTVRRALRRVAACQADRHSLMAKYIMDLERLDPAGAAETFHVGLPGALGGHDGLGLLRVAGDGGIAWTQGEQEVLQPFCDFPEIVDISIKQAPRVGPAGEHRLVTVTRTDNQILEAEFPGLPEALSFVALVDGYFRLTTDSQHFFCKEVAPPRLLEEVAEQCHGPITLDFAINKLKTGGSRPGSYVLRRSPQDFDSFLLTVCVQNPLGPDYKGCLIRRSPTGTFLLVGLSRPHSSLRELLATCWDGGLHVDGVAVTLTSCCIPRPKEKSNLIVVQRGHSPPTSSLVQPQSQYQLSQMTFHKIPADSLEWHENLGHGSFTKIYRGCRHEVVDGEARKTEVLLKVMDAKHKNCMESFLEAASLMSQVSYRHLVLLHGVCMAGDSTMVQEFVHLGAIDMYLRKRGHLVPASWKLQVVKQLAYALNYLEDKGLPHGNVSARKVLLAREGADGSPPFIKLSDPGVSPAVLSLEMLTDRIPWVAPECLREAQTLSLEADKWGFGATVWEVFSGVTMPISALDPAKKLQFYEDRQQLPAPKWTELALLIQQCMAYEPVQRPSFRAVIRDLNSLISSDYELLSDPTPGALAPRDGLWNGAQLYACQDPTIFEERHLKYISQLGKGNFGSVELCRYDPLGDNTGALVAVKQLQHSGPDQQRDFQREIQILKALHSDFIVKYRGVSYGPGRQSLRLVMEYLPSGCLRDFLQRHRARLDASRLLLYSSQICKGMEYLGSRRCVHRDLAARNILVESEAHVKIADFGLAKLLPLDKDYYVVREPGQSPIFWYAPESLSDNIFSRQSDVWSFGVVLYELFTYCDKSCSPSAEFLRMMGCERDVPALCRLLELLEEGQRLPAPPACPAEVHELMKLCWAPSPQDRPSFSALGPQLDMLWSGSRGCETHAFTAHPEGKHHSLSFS
Text: as §3

[2] = biological target: EGFR (pY1068) in A431 cell (WT) (Homo sapiens (Human), UniProt P00533); experiment: pEGFR sandwich ELISA assay (Examples B-2, B-3, Table 21); type: cell-based; settings: read-out: IC50 (uM) A431 WT (EGF stimulation)
Sequence of EGFR (pY1068) in A431 cell (WT) (P00533 25-1210): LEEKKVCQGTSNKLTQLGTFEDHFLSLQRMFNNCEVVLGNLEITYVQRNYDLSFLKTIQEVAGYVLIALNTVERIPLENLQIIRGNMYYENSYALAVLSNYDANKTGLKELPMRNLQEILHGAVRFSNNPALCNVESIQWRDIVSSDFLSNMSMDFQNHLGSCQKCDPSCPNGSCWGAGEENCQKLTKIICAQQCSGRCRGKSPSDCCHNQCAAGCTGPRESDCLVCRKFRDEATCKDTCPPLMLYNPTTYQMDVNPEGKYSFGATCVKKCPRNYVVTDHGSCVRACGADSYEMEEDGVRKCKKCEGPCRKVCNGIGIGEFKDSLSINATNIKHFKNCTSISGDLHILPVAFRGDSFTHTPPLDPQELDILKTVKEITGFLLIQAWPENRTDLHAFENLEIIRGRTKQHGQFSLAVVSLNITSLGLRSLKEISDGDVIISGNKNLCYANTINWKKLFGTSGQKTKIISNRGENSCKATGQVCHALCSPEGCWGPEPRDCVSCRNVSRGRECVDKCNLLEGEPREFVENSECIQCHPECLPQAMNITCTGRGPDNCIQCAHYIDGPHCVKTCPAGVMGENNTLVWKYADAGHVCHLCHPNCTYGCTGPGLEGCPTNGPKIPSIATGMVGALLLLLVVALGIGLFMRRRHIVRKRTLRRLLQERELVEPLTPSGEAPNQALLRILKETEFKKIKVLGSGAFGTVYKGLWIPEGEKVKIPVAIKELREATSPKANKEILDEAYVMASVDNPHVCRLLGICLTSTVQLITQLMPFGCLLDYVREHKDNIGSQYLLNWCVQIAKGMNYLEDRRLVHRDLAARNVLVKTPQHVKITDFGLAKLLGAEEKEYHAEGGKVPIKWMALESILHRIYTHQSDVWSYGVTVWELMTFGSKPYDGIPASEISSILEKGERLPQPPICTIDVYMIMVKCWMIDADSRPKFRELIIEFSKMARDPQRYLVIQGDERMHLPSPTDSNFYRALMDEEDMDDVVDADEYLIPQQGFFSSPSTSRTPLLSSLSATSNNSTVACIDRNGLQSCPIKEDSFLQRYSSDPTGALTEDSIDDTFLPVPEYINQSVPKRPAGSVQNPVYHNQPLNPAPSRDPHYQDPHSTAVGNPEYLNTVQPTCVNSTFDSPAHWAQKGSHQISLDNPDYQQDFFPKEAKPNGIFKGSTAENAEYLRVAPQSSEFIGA

[3] = test system: A431 (WT) human skin epidermoid carcinoma xenograft; settings: for Tumor volume: 100 mpk PO QD
Protocol: Each mouse was inoculated subcutaneously at the right flank with H1975 cells (5×10^6), HCC827 (5×10^6) and A431 (5×10^6) respectively in 0.2 ml of medium for tumor development. The treatments were started when the tumor size reached approximately 200-250 mm^3. The testing articles were administrated to the mice according to the predetermined regimen as shown in the experimental design table.
All the procedures related to animal handling, care and the treatment in this study were performed according to the guidelines approved by the Institutional Animal Care and Use Committee (IACUC) following the guidance of the Association for Assessment and Accreditation of Laboratory Animal Care (AAALAC). At the time of routine monitoring, the animals were checked for any effects of tumor growth and treatments on normal behavior such as mobility, food and water consumption (by observation), body weight gain/loss (body weights were measured twice weekly), eye/hair matting and any other abnormal effect. Death and observed clinical signs were recorded on the basis of the numbers of animals within each subset.
The major endpoint was to see if the tumor growth can be delayed or mice can be cured. Tumor size was measured twice weekly in two dimensions using a caliper, and the volume was expressed in mm^3 using the formula: V=0.5 a×b^2 where a and b are the long and short diameters of the tumor, respectively. The tumor size was then used for calculations of both T-C and T/C values. T-C was calculated with T as the median time (in days) required for the treatment group tumors to reach a predetermined size (e.g., 1,000 mm^3), and C as the median time (in days) for the control group tumors to reach the same size. The T/C value (in percent) was an indication of antitumor effectiveness; T and C were the mean volume of the treated and control groups, respectively, on a given day. Tumor weight was measured at the study termination. The T/C value (in percent) was calculated where T and C were the mean tumor weights of the treated and control groups, respectively.

`C=CC(=O)Nc1cccc(Oc2nc(Nc3ccc(N4CCN(C)CC4)nc3)nc3[nH]ccc23)c1` [Compound 2, N-(3-(2-(6-(4-methylpiperazin-1-yl)pyridin-3-ylamino)-7H-pyrrolo[2,3-d]pyrimidin-4-yloxy)phenyl)acrylamide] was tested, and the “Selectivity A431/H1975” value [1] was 300.00, the IC50 [1] was 0.001 µM and the IC50 (JAK2) was 2060 nM. The IC50 (BTK) was 0.362 nM, the IC50 (JAK3) was 0.0365 nM and the IC50 (human wt BTK) was 0.012 µM and 0.059 µM. The IC50 (human wt JAK3) was 0.2 µM and 0.36 µM and the IC50 [2] was 0.3 µM.
`C=CC(=O)Nc1cccc(Oc2nc(Nc3ccc(N4CCN(C)CC4)cc3)nc3c2ccn3CO)c1` [Compound 4, N-(3-((7-(hydroxymethyl)-2-((4-(4-methylpiperazin-1-yl)phenyl)amino)-7H-pyrrolo[2,3-d]pyrimidin-4-yl)oxy)phenyl)acrylamide] was tested, and the “Selectivity A431/H1975” value [1] was 162.69, the IC50 [1] was 0.067 µM and the IC50 [2] was 10.9 µM.
For `C=CC(=O)Nc1cccc(Oc2nc(Nc3ccc(N4CCN(C)CC4)nc3)nc3c2ccn3CO)c1` [Compound 5, N-(3-(7-(hydroxymethyl)-2-(6-(4-methylpiperazin-1-yl)pyridin-3-ylamino)-7H-pyrrolo[2,3-d]pyrimidin-4-yloxy)phenyl)acrylamide], the “Selectivity A431/H1975” value [1] was 113.17, the IC50 [1] was 0.243 µM and the IC50 [2] was 27.5 µM.
With `C=CC(=O)Nc1cccc(Oc2nc(Nc3ccc(N4CCN(C)CC4)c(F)c3)nc3c2ccn3CO)c1` [Compound 6, N-(3-(2-(3-fluoro-4-(4-methylpiperazin-1-yl)phenylamino)-7-(hydroxymethyl)-7H-pyrrolo[2,3-d]pyrimidin-4-yloxy)phenyl)acrylamide] the “Selectivity A431/H1975” value [1] was 232.91, the IC50 [1] was 0.0398 µM and the IC50 [2] was 9.27 µM.
For `C=CC(=O)Nc1cccc(Oc2nc(Nc3ccc(N4CCN(C)CC4)cc3)nc3c2ccn3CCF)c1` [Compound 7, N-(3-(7-(2-fluoroethyl)-2-(4-(4-methylpiperazin-1-yl)phenylamino)-7H-pyrrolo[2,3-d]pyrimidin-4-yloxy)phenyl)acrylamide], the IC50 [1] was 12.4 µM and the IC50 [2] was greater than 20 µM.
For `C=CC(=O)Nc1cccc(Oc2nc(Nc3ccc(NC4CN(CCF)C4)cc3OC)nc3[nH]ccc23)c1` [Compound 34, N-(3-(2-(4-(1-(2-fluoroethyl)azetidin-3-ylamino)-2-methoxyphenylamino)-7H-pyrrolo[2,3-d]pyrimidin-4-yloxy)phenyl)acrylamide], the “Selectivity A431/H1975” value [1] was 92.95, the IC50 [1] was 0.0217 µM and the IC50 [2] was 2.02 µM.
For `COc1cc2ncnc(Nc3ccc(F)c(Cl)c3)c2cc1OCCCN1CCOCC1` [Gefitinib], the “T-C (days) at 300 mm^3” value ([3]; 100 mg/kg po qd) was greater than 14 days, the “T/C (%)” value ([3]; 100 mg/kg po qd) was 8.7% and the “Tumor Weight (g) at day 23(14)” value ([3]; 100 mg/kg po qd) was 0.13 ± 0.03 g. For the same compound, the “Mouse Weight (g) at day 25(14)” value ([3]; 100 mg/kg po qd, Mean ± SEM) was 21.56 ± 0.51 g, the “Tumor Size (mm^3) at day 25(14)” value ([3]; 100 mg/kg po qd, Mean ± SEM, Table 16) was 154 ± 33 mm^3 and the Tumor volume ([3]; day 11, Mean ± SEM) was 239.83 ± 23.30 mm^3. The Tumor volume ([3]; day 18, Mean ± SEM) was 139.70 ± 26.94 mm^3, the Tumor volume ([3]; day 21, Mean ± SEM) was 139.70 ± 22.07 mm^3 and the Tumor volume ([3]; day 25, Mean ± SEM) was 154.79 ± 32.62 mm^3.
